The source of these data is BindingDB's records for doi:10.1021/jm400944k (China Pharmaceutical University, 2013).

Broadly, the pEC50 is −log10 of the EC50, conventionally taken in molar units.

The structures appear in SMILES notation. pEC50: −log10 of the molar value.

The experiment addresses T1, Nuclear factor erythroid 2-related factor 2 (Homo sapiens, UniProt Q16236).
T1 sequence (Q16236 whole entry): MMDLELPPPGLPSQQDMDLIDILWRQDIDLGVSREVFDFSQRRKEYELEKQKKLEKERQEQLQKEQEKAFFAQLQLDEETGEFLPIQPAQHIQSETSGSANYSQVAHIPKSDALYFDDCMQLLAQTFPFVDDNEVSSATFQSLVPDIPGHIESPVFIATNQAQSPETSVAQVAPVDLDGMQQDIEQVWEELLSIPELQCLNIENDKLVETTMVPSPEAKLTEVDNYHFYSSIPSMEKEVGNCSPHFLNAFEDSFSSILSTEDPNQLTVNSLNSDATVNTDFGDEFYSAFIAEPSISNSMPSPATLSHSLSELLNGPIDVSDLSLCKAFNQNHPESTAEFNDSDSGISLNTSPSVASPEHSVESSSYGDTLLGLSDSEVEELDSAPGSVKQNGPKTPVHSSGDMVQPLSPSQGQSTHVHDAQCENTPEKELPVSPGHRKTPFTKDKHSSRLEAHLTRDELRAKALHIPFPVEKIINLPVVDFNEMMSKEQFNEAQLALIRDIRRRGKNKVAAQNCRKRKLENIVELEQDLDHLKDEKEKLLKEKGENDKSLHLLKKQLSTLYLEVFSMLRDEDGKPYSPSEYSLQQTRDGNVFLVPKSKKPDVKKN
The experiment can be described thus: Induction of Nrf2-mediated ARE activity in human HepG2-ARE-C8 cells after 12 hrs by luciferase reporter gene assay. (In general: Reporter assays use an easily measured gene product as a stand-in for the process of interest.)
Take `COc1ccc2c(c1)C1CN/C(=C\C(=O)c3ccccc3)C(=O)N1CC2` (configuration not stated): the pEC50 was < 4.00.

`COc1cc2c(cc1OC)C1CN/C(=C\C(=O)c3cccc(Cl)c3)C(=O)N1CC2` (configuration not stated): the pEC50 was < 4.00.

On to `COc1ccc2c(c1)C1CN/C(=C\C(=O)c3cccc(F)c3)C(=O)N1CC2` (configuration not stated), for which the pEC50 was < 4.00.

In the case of `COc1cccc(C(=O)/C=C2\NCC3c4cc(OC)ccc4CCN3C2=O)c1` (configuration not stated), the pEC50 is < 4.00.

As to `COc1ccccc1C(=O)/C=C1\NCC2c3ccccc3CCN2C1=O` (configuration not stated), the pEC50 was < 4.00.

Regarding `O=C(/C=C1\NCC2c3ccccc3CCN2C1=O)c1ccccc1[N+](=O)[O-]` (configuration not stated), the pEC50 was < 4.00.

The compound `COc1ccc(C(=O)/C=C2\NCC3c4ccccc4CCN3C2=O)cc1OC` (configuration not stated) had a pEC50 of 4.03.

Turning to `O=C(/C=C1\NCC2c3ccccc3CCN2C1=O)c1ccc(-c2ccccc2)cc1` (configuration not stated), the pEC50 is < 4.00.

`O=C(/C=C1\NCC2c3ccccc3CCN2C1=O)c1ccc(F)c(F)c1` (configuration not stated): the pEC50 is < 4.00.

As to `COc1cccc(C(=O)/C=C2\NCC3c4ccccc4CCN3C2=O)c1` (configuration not stated), the pEC50 is < 4.00.

`O=C(/C=C1\NCC2c3ccccc3CCN2C1=O)c1ccc([N+](=O)[O-])cc1` (configuration not stated): the pEC50 is < 4.00.

On to `O=C(/C=C1\NCC2c3ccccc3CCN2C1=O)c1ccc(Cl)cc1` (configuration not stated), for which the pEC50 is < 4.00.

Regarding `O=C(/C=C1\NCC2c3ccccc3CCN2C1=O)c1ccccc1Cl` (configuration not stated), the pEC50 was < 4.00.

In the case of `COc1ccc2c(c1)CCN1C(=O)/C(=C/C(=O)c3cccc(F)c3)NCC21` (configuration not stated), the pEC50 was < 4.00.

Take `COc1ccc2c(c1)CCN1C(=O)/C(=C/C(=O)c3ccccc3)NCC21` (configuration not stated): the pEC50 was < 4.00.

In the case of `COc1cccc2c1CCN1C(=O)/C(=C/C(=O)c3ccccc3F)NCC21` (configuration not stated), the pEC50 was < 4.00.

`COc1cc2c(cc1OC)C1CN/C(=C\C(=O)c3ccc(F)cc3)C(=O)N1CC2` (configuration not stated) gave a pEC50 of 4.09.

On to `COc1cc2c(cc1OC)C1CN/C(=C\C(=O)c3cccc(F)c3)C(=O)N1CC2` (configuration not stated), for which the pEC50 is 4.04.

`COc1cc2c(cc1OC)C1CN/C(=C\C(=O)c3cccc([N+](=O)[O-])c3)C(=O)N1CC2` (configuration not stated) showed a pEC50 of 4.30. Compared with the last compound, the pEC50 is 0.26 log units higher.

`COc1cc2c(cc1OC)C1CN/C(=C\C(=O)c3ccccc3F)C(=O)N1CC2` (configuration not stated) had a pEC50 of 4.12.

In turn, `O=C(/C=C1\NCC2c3ccccc3CCN2C1=O)c1cc(F)cc(F)c1` (configuration not stated) showed a pEC50 of 4.23.

`COc1cc2c(cc1OC)C1CN/C(=C\C(=O)c3ccccc3)C(=O)N1CC2` (configuration not stated): the pEC50 was < 4.00.

Consider `COc1ccc2c(c1)C1CN/C(=C\C(=O)c3cccc(Cl)c3)C(=O)N1CC2` (configuration not stated), for which the pEC50 was < 4.00.

`Cc1ccc(C(=O)/C=C2\NCC3c4ccccc4CCN3C2=O)cc1` (configuration not stated): the pEC50 was < 4.00.

As for `O=C(/C=C1\NCC2c3ccccc3CCN2C1=O)c1ccc(F)cc1` (configuration not stated), the pEC50 is < 4.00.

Take `O=C(/C=C1\NCC2c3ccccc3CCN2C1=O)c1cccc(Br)c1` (configuration not stated): the pEC50 was 4.23.

Take `COc1ccc2c(c1)C1CN/C(=C\C(=O)c3cccc([N+](=O)[O-])c3)C(=O)N1CC2` (configuration not stated): the pEC50 is < 4.00.

For `O=C(/C=C1\NCC2c3ccccc3CCN2C1=O)c1ccc(Cl)cc1Cl` (configuration not stated), the pEC50 was < 4.00.

Take `COc1ccc2c(c1)CCN1C(=O)/C(=C/C(=O)c3ccccc3F)NCC21` (configuration not stated): the pEC50 was < 4.00.

Compound `COc1cccc2c1CCN1C(=O)/C(=C/C(=O)c3ccccc3)NCC21` (configuration not stated) gave a pEC50 of 4.23.

In turn, `COc1ccc2c(c1)C1CN/C(=C\C(=O)c3ccc(F)cc3)C(=O)N1CC2` (configuration not stated) showed a pEC50 of 4.06.

With `COc1ccc2c(c1)C1CN/C(=C\C(=O)c3ccccc3F)C(=O)N1CC2` (configuration not stated), the pEC50 is < 4.00.

As to `O=C(/C=C1\NCC2c3ccccc3CCN2C1=O)c1cccc(F)c1` (configuration not stated), the pEC50 was < 4.00.

Take `O=C(/C=C1\NCC2c3ccccc3CCN2C1=O)c1cccc([N+](=O)[O-])c1` (configuration not stated): the pEC50 was < 4.00.

Regarding `O=C(/C=C1\NCC2c3ccccc3CCN2C1=O)c1cccc(Cl)c1` (configuration not stated), the pEC50 was < 4.00.

As for `O=C(/C=C1\NCC2c3ccccc3CCN2C1=O)c1cccc(C(F)(F)F)c1` (configuration not stated), the pEC50 was < 4.00.

On to `COc1cccc2c1CCN1C(=O)/C(=C/C(=O)c3cccc(F)c3)NCC21` (configuration not stated), for which the negative logarithm of the EC50 (pEC50) was < 4.00.

Take `COc1cccc(C(=O)/C=C2\NCC3c4cc(OC)c(OC)cc4CCN3C2=O)c1` (configuration not stated): the pEC50 is < 4.00.

With `COc1ccc(C(=O)/C=C2\NCC3c4ccccc4CCN3C2=O)cc1` (configuration not stated), the pEC50 was < 4.00.

Turning to `O=C(/C=C1\NCC2c3ccccc3CCN2C1=O)c1ccccc1F` (configuration not stated), the pEC50 is < 4.00.

As to `O=C(/C=C1\NCC2c3ccccc3CCN2C1=O)c1ccccc1` (configuration not stated), the pEC50 was < 4.00.

For the compound `CC(C)(C)c1cc(O)ccc1O` [CHEBI:78886], the negative logarithm of the EC50 (pEC50) was 4.04.
